In the kinase profiling compilation of Christmann-Franck et al. (2016):

What was measured:
Experiment in all cases: radiometric filter-binding kinase assay
[1] = target: RPS6KA3 KD1 KD2 (human) (UniProt P51812)
[2] = target: MKNK2 (human) (UniProt Q9HBH9)
[3] = target: PAK7 (human) (UniProt Q9P286)
[4] = target: PLK1 (human) (UniProt P53350)
[5] = target: FGFR1 (human) (UniProt P11362)
[6] = target: STK11 CAB39 STRADA (human) (UniProt Q9Y376+Q7RTN6+Q15831)
[7] = target: BRSK2 (human) (UniProt Q8IWQ3)
[8] = target: MAPK1 (human) (UniProt P28482)
[9] = target: MAP2K2 (human) (UniProt P36507)
[10] = target: EPHA4 (human) (UniProt P54764)
[11] = target: TBK1 (human) (UniProt Q9UHD2)
[12] = target: CSK (human) (UniProt P41240)
[13] = target: EEF2K (human) (UniProt O00418)
EEF2K (human), sequence (O00418 whole entry, looked up): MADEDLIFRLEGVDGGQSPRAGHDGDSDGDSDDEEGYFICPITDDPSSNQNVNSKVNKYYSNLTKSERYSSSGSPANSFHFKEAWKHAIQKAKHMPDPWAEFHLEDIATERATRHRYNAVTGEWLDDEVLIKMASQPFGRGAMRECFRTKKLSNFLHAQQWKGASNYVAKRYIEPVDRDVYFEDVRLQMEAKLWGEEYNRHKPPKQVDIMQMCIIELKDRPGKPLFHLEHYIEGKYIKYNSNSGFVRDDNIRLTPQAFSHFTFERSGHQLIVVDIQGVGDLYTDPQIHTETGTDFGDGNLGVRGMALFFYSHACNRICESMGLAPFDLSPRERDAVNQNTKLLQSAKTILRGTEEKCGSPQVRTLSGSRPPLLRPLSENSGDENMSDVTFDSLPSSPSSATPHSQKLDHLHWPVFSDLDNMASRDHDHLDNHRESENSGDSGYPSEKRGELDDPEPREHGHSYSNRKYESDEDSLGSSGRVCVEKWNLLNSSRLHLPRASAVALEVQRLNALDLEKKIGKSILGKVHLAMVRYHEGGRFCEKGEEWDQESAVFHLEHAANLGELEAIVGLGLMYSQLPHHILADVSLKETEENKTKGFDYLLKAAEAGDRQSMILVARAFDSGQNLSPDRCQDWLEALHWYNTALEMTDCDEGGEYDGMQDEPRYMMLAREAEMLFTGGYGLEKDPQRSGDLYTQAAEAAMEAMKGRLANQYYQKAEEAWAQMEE

[14] = target: IKBKB (human) (UniProt O14920)
[15] = target: SRPK1 (human) (UniProt Q96SB4)
SRPK1 (human), sequence (Q96SB4 whole entry, looked up): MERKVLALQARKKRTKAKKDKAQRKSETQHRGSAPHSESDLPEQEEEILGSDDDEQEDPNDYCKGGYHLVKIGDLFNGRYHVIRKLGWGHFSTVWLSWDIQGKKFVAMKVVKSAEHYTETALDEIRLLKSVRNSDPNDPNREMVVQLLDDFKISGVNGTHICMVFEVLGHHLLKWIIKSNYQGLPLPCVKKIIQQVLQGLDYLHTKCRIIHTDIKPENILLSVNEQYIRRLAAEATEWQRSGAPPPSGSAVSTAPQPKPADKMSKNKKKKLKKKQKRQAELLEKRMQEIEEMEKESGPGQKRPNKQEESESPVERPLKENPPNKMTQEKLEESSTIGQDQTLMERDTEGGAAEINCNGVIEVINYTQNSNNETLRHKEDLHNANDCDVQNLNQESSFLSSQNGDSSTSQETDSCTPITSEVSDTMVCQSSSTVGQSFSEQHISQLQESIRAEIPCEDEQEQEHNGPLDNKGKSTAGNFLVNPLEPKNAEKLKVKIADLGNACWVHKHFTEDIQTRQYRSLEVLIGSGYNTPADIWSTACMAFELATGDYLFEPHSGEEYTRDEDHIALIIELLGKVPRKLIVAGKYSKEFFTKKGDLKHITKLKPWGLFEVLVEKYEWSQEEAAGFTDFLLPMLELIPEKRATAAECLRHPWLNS

[16] = system: PAK2 (human), Q13177 [T402E]
PAK2 (human), Q13177 [T402E], sequence (Q13177 whole entry T402E, looked up): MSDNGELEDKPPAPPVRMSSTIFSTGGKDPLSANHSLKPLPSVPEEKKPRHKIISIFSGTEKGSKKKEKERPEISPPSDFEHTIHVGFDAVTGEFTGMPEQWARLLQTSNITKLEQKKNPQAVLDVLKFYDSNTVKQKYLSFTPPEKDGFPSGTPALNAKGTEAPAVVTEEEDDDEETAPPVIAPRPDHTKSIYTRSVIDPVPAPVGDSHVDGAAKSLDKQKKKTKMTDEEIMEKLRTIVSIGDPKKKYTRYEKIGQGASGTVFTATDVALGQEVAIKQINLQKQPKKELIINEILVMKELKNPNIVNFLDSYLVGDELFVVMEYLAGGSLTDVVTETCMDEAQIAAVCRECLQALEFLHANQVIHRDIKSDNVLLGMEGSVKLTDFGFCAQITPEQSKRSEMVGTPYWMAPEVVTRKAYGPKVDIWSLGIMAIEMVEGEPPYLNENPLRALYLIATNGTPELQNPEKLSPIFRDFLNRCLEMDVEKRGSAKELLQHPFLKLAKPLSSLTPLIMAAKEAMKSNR

[17] = target: RPS6KA5 KD1 KD2 (human) (UniProt O75582)
RPS6KA5 KD1 KD2 (human), sequence (O75582 whole entry, looked up): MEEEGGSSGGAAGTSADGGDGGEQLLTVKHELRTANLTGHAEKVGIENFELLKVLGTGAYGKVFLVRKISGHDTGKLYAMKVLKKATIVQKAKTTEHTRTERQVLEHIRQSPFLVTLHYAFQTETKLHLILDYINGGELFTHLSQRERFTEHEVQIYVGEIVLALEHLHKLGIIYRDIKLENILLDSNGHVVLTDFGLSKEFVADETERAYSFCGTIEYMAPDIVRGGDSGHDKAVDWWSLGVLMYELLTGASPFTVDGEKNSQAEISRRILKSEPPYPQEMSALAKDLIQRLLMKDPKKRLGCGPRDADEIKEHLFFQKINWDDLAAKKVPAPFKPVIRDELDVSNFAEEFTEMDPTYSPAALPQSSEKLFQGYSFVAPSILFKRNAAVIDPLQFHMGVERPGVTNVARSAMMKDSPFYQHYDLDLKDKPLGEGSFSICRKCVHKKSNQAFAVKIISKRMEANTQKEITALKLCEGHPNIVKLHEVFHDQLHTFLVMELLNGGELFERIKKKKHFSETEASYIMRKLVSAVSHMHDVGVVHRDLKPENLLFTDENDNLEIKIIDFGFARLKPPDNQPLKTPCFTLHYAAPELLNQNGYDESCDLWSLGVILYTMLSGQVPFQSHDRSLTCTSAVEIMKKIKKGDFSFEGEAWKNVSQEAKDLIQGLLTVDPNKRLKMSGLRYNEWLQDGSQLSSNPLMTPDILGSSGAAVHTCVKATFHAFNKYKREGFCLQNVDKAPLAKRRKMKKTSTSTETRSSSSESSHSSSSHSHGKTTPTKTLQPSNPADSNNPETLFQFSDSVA

[18] = target: CSNK1D (human) (UniProt P48730)
[19] = target: GSK3B (human) (UniProt P49841)
[20] = target: HIPK1 (human) (UniProt Q86Z02)
[21] = target: MAPK9 (human) (UniProt P45984)
[22] = system: AKT1 (human), P31749 [S473D]
AKT1 (human), P31749 [S473D], sequence (P31749 whole entry S473D, looked up): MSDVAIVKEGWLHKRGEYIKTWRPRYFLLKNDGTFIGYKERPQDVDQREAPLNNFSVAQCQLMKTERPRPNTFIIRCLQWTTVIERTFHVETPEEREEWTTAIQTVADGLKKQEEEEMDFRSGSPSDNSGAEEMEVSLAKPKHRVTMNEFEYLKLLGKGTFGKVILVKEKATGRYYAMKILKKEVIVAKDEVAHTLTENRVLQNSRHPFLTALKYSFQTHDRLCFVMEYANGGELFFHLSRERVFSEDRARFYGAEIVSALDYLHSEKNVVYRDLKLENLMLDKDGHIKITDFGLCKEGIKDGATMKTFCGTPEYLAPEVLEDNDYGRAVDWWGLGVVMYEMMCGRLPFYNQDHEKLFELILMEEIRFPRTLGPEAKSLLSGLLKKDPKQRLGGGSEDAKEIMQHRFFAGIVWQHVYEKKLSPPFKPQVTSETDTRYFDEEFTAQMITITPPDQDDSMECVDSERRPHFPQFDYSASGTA

[23] = target: MAPK3 (human) (UniProt P27361)
[24] = target: MAPKAPK3 (human) (UniProt Q16644)
[25] = target: HIPK3 (human) (UniProt Q9H422)
[26] = target: MAP3K1 (human) (UniProt Q13233)
[27] = target: MAP3K5 (human) (UniProt Q99683)
MAP3K5 (human), sequence (Q99683 whole entry, looked up): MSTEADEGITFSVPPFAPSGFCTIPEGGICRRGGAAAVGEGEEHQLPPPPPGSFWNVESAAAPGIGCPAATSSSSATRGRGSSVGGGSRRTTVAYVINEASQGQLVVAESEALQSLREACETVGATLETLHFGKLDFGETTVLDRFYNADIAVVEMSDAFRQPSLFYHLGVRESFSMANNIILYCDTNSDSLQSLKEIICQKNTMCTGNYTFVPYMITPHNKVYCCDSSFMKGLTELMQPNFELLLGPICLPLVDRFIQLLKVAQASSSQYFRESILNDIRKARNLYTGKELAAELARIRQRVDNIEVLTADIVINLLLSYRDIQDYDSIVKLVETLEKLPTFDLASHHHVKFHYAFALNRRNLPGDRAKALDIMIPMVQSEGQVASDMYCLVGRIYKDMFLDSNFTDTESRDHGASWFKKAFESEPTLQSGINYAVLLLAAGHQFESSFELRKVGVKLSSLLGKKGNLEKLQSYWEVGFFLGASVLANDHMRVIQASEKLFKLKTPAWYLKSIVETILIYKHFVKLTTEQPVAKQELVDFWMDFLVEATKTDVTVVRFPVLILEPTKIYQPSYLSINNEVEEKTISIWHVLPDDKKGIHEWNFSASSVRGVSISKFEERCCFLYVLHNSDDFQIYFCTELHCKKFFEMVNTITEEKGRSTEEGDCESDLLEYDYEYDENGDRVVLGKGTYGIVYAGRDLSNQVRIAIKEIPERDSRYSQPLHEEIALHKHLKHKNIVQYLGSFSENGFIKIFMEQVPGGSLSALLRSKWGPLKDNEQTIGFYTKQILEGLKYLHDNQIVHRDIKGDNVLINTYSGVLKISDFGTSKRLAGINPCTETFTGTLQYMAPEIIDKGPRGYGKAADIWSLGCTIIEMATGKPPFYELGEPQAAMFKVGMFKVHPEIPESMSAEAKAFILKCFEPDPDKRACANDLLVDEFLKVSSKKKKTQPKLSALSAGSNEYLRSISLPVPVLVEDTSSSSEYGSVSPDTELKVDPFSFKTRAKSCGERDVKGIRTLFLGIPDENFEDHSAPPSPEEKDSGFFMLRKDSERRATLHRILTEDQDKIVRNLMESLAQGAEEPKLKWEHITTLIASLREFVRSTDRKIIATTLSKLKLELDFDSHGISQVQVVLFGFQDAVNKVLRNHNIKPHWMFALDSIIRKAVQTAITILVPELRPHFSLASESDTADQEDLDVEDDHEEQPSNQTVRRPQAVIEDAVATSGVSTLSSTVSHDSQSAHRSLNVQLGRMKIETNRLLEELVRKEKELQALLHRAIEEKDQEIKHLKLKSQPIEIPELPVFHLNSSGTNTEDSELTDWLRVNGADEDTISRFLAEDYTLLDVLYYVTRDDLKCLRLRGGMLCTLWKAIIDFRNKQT

[28] = target: ERBB4 (human) (UniProt Q15303)
[29] = target: AURKA (human) (UniProt O14965)
AURKA (human), sequence (O14965 whole entry, looked up): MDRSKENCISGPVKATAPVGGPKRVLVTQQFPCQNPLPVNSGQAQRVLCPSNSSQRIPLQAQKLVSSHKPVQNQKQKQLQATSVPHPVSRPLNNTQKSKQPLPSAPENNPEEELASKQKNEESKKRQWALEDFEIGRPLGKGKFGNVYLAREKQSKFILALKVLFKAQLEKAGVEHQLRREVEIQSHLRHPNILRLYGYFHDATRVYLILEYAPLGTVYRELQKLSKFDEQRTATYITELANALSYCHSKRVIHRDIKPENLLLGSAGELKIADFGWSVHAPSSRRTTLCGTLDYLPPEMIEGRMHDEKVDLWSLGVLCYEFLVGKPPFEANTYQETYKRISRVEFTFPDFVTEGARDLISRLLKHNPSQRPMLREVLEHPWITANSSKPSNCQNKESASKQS

[30] = target: MAPK8 (human) (UniProt P45983)
[31] = target: BRSK1 (human) (UniProt Q8TDC3)
[32] = target: MAP2K6 (human) (UniProt P52564)
[33] = target: MAPK15 (human) (UniProt Q8TD08)
[34] = target: NEK6 (human) (UniProt Q9HC98)
[35] = target: BTK (human) (UniProt Q06187)

residual activity ([1]; compound 1.0 µM): 132%
residual activity ([1]; compound 10.0 µM): 88%
residual activity ([2]; compound 1.0 µM): 105%
residual activity ([2]; compound 10.0 µM): 64%
residual activity ([3]; compound 1.0 µM): 103%
residual activity ([3]; compound 10.0 µM): 94%
residual activity ([4]; compound 1.0 µM): 83%
residual activity ([4]; compound 10.0 µM): 16%
residual activity ([5]; compound 1.0 µM): 102%
residual activity ([5]; compound 10.0 µM): 76%
residual activity ([6]; compound 1.0 µM): 85%
residual activity ([6]; compound 10.0 µM): 64%
residual activity ([7]; compound 1.0 µM): 115%
residual activity ([7]; compound 10.0 µM): 105%
residual activity ([8]; compound 1.0 µM): 114%
residual activity ([8]; compound 10.0 µM): 95%
residual activity ([9]; compound 1.0 µM): 87%
residual activity ([9]; compound 10.0 µM): 70%
residual activity ([10]; compound 1.0 µM): 109%
residual activity ([10]; compound 10.0 µM): 106%
residual activity ([11]; compound 1.0 µM): 109%
residual activity ([11]; compound 10.0 µM): 63%
residual activity ([12]; compound 1.0 µM): 100%
residual activity ([12]; compound 10.0 µM): 95%
residual activity ([13]; compound 1.0 µM): 106%
residual activity ([13]; compound 10.0 µM): 80%
residual activity ([14]; compound 1.0 µM): 89%
residual activity ([14]; compound 10.0 µM): 56%
residual activity ([15]; compound 1.0 µM): 112%
residual activity ([15]; compound 10.0 µM): 105%
residual activity ([16]; compound 1.0 µM): 109%
residual activity ([16]; compound 10.0 µM): 101%
residual activity ([17]; compound 1.0 µM): 90%
residual activity ([17]; compound 10.0 µM): 22%
residual activity ([18]; compound 1.0 µM): 86%
residual activity ([18]; compound 10.0 µM): 41%
residual activity ([19]; compound 1.0 µM): 63%
residual activity ([19]; compound 10.0 µM): 14%
residual activity ([20]; compound 1.0 µM): 65%
residual activity ([20]; compound 10.0 µM): 12%
residual activity ([21]; compound 1.0 µM): 113%
residual activity ([21]; compound 10.0 µM): 100%
residual activity ([22]; compound 1.0 µM): 99%
residual activity ([22]; compound 10.0 µM): 73%
residual activity ([23]; compound 1.0 µM): 101%
residual activity ([23]; compound 10.0 µM): 82%
residual activity ([24]; compound 1.0 µM): 109%
residual activity ([24]; compound 10.0 µM): 95%
residual activity ([25]; compound 1.0 µM): 63%
residual activity ([25]; compound 10.0 µM): 10%
residual activity ([26]; compound 1.0 µM): 109%
residual activity ([26]; compound 10.0 µM): 93%
residual activity ([27]; compound 1.0 µM): 95%
residual activity ([27]; compound 10.0 µM): 72%
residual activity ([28]; compound 1.0 µM): 94%
residual activity ([28]; compound 10.0 µM): 89%
residual activity ([29]; compound 1.0 µM): 108%
residual activity ([29]; compound 10.0 µM): 63%
residual activity ([30]; compound 1.0 µM): 103%
residual activity ([30]; compound 10.0 µM): 101%
residual activity ([31]; compound 1.0 µM): 138%
residual activity ([31]; compound 10.0 µM): 104%
residual activity ([32]; compound 1.0 µM): 94%
residual activity ([32]; compound 10.0 µM): 100%
residual activity ([34]; compound 1.0 µM): 93%
residual activity ([34]; compound 10.0 µM): 83%
residual activity ([35]; compound 1.0 µM): 98%
residual activity ([35]; compound 10.0 µM): 84%
Structure (SMILES): FC(F)(F)c1ccc(-c2ccc(Oc3cncc4sc(-c5nn[nH]n5)cc34)cc2)cc1
residual activity ([33]; compound 1.0 µM): 34%
residual activity ([33]; compound 10.0 µM): 4%
